Calls of active or inactive are those of the source. No rule for the calls is given here.
system: Trypanosoma brucei growth inhibition; assay: trypanosome proliferation inhibitors (AID 1159557);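 also: parasites exposed to compound for 48 h before the resazurin readout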

IC50 | Compound
1 µM | O=c1cc(NCCCNCc2c[nH]c3ccc(Br)cc23)[nH]c2ccccc12
0.4 µM | Cc1[nH]n2c(=O)c3c(nc2c1-c1ccc(F)cc1)CCCC3
0.05 µM | CN(C)Cc1cccc(Nc2nccc(-c3ccc(NCCN)c(C#N)c3)n2)c1
20 µM | COc1ccc(Nc2nc(-c3ccccn3)cs2)c(OC)c1
0.79 µM | CN(Cc1nc2ccc(C(=O)NCC3CCCCC3)cc2[nH]1)C1CCCc2cccnc21 (configuration not stated)
32 µM | CN(Cc1cc2ccccc2s1)c1ncc2c(N)nc(N)nc2n1
6.3 µM | CC(C)(C)Nc1nc(-c2ccccn2)nc2ccccc12
> 40 µM (inactive) | CC(Cn1ccnc1)NC(=O)COc1ccc(Cl)c(Cl)c1 (configuration not stated)
16 µM | O=C(NCC(c1cccnc1)N1CCc2ccccc2C1)C(=O)Nc1cccc(Cl)c1 (configuration not stated)
0.2 µM | COc1ncc(-c2ccc3nccc(-c4ccncc4)c3c2)cc1NS(=O)(=O)C1CC1
7.9 µM | CC(C)c1nn(-c2nc(N)nc(-c3ccccn3)n2)c(N)c1C1CCCCC1
16 µM | COc1cccc(C(=O)[C@H]2C[C@@H]2CN(Cc2ccccn2)Cc2ccccn2)c1
> 40 µM (inactive) | CC1CN(Cc2ccc(C#N)cc2)CCN1c1ccc(NC(=O)c2ccccc2F)cc1 (configuration not stated)
0.32 µM | O=S1N=C(NCCCN(Cc2ccc(F)cc2)c2ccccn2)C(NCc2ccncc2)=N1 (configuration not stated)
0.01 µM | O=c1cc(NCCCNC2CCOc3c(I)cc(Cl)cc32)[nH]c2ccccc12 (configuration not stated)
0.2 µM | O=C(Nc1cccc(S(=O)(=O)Nc2ccc(Br)cc2)c1)c1ccc([N+](=O)[O-])s1
0.4 µM | CNC(=O)C1Cc2ccccc2N1C(=O)Cc1ccc(OC)cc1 (configuration not stated)
0.13 µM | Cc1cc(NC(=O)C2CC2)ccc1OC1CCN(Cc2ccco2)CC1
1 µM | Cc1nc2c(-c3n[nH]c(-c4ccccc4N)n3)cccn2c1C
20 µM | COc1ccc(S(=O)(=O)NC(C)C)cc1Nc1ncc(-c2cccc(F)c2)cn1
32 µM | CN(Cc1nc2ccccc2s1)C(=O)C=Cc1cc2ccccc2o1
0.079 µM | COc1ccc(-c2csc(NC(=O)c3ccc([N+](=O)[O-])s3)n2)cc1
0.13 µM | COc1ccc(-c2csc(NC(=O)c3ccc([N+](=O)[O-])s3)n2)cc1OC
0.32 µM | CCN(CC)S(=O)(=O)c1ccc(C)c(NC(=O)c2cc(Cl)c3c(c2)OCO3)c1

IC50 | Compound
16 µM | COc1ccc(-c2cc(C)no2)cc1S(=O)(=O)Nc1ccc(F)c(Cl)c1
0.5 µM | CCOc1ccc(CC(=O)N2c3ccccc3CC2C(=O)NC)cc1 (configuration not stated)
16 µM | COc1cc(-c2nc(N3CCOCC3)sc2-c2ccnc(NC3CCOCC3)n2)ccc1Cl
10 µM | Nc1nc(-c2ccccc2)cc(-c2nc3ncccc3[nH]2)n1
5 µM | Oc1cccnc1-c1n[nH]c(Cc2ccccc2)n1
10 µM | O=C(c1ccc(OCCCc2cnc[nH]2)cc1)C1CC1
0.63 µM | CC(=O)NC1(c2ccccc2)CCN(CC(=O)Nc2ccccc2-c2ccccc2)CC1
0.16 µM | CCc1c(C)nc(-n2nc(C)cc2NC(=O)COc2ccccc2F)[nH]c1=O
6.3 µM | COc1ccc(-c2cnc(C)o2)cc1S(=O)(=O)Nc1ccc(C)cc1C
0.25 µM | COc1cc(F)c2ncc(F)c(CCN3CC[C@H](NCc4cc5c(cn4)OCS5)[C@@H](O)C3)c2c1
10 µM | O=C(CN(c1cccc(C(F)(F)F)c1)S(=O)(=O)c1ccc(Cl)cc1)NCc1ccc(F)c(F)c1
0.2 µM | Cc1ccnc(NS(=O)(=O)c2ccc(NC(=O)c3ccc([N+](=O)[O-])s3)cc2)n1
0.1 µM | Cc1ccc(NC(=O)c2ccnc(N3CCCC3)c2)cc1-c1cc(C(N)=O)ccc1C
0.25 µM | O=C(Nc1ccccc1C(=O)Nc1ccccn1)c1ccco1
0.79 µM | CC(C)(C)Nc1nc(Nc2ccc3c(c2)CS(=O)(=O)C3)nc2[nH]ccc12
0.63 µM | Cn1nccc1NC(=O)Cn1ccc(-c2ccncc2)n1
1 µM | O=C(Nc1ccccc1)Nc1nc(-c2ccccn2)cs1
2.5 µM | CCN(CC)c1nc(Nc2ccncc2)nc2ccccc12
40 µM | N#Cc1cc(N2CCCC2=O)ccc1Sc1ccccc1CO
25 µM | c1cncc(CN(Cc2ccco2)Cc2cn[nH]c2-c2cccs2)c1
0.63 µM | CCn1c(-c2nonc2N)nc2c([C@@H](C)O)ncc(O[C@H](CN)c3ccccc3)c21
20 µM | Cn1nc([N+](=O)[O-])nc1Oc1ccc(C(=O)c2ccccc2)cc1
13 µM | COc1ccc(C(C)N(C)c2ncc3c(N)nc(N)nc3n2)cc1F (configuration not stated)
0.25 µM | CNC(=O)C1Cc2ccccc2N1C(=O)Cc1ccc(F)cc1 (configuration not stated)

IC50 | Compound
0.2 µM | CCOc1ccc(NC(=O)c2ccc(NC(=O)NC3CCCCC3)cc2)cc1
0.2 µM | NS(=O)(=O)c1ccc(Nc2ncc3cccc(OC4CCNCC4)c3n2)cc1
0.2 µM | NC(=O)c1ccsc1NC(=O)c1ccc([N+](=O)[O-])s1
25 µM | COc1ccc([N+](=O)[O-])cc1NC(=O)c1cc(Cl)ccc1O
0.2 µM | Cc1cc(NC(=O)CC2CCCCC2)n(-c2nc3c(c(=O)[nH]2)CCC3)n1
10 µM | Clc1cc(Br)ccc1OCCCCn1ccnc1
10 µM | Cc1nn(C2CCS(=O)(=O)C2)c(C)c1CN(C)C(=O)C=Cc1sc2ccccc2c1Cl (configuration not stated)
20 µM | COc1ccc2nc(N(Cc3cccnc3)C(=O)C3CCC3)sc2c1
> 40 µM (inactive) | CN(C)c1ccc(N)cc1CN(CC1CCCO1)S(C)(=O)=O (configuration not stated)
0.25 µM | Cc1ccc(NC(=O)c2ccc([N+](=O)[O-])s2)cc1S(=O)(=O)N1CCOCC1
0.5 µM | CCc1cccc(CC)c1-n1c(SCC(=O)N2CC(=O)Nc3ccccc32)nnc1-c1cccnc1
> 40 µM (inactive) | CC(=Cc1ccccc1)CN1CCC(=O)N(Cc2cccnc2)CC1
> 40 µM (inactive) | N#Cc1ccccc1S(=O)(=O)N1CCN(C(=O)CNC(=O)c2ccc3c(c2)OCO3)CC1
0.63 µM | CNC(=O)C1Cc2ccccc2N1C(=O)COc1cccc(OC)c1 (configuration not stated)
1 µM | Cc1nc(-c2ccncc2)ncc1C(C)NC(=O)c1ccc(Cl)s1 (configuration not stated)
13 µM | Cc1cc(Br)cc(C(=O)c2c(C(C)C)c(=O)[nH]c(=O)n2Cc2ccnc(N)c2)c1
0.04 µM | N#Cc1cccc(Cc2cc(Nc3cc(C4CC4)[nH]n3)nc(N3CC[C@H]3C(N)=O)n2)c1
20 µM | O=C(CN1CCN(S(=O)(=O)c2cccc([N+](=O)[O-])c2)CC1)Nc1ccc(Oc2ccccc2)cc1
0.13 µM | COc1ccc(C(=O)NC2CCN(CCn3c(=O)ccc4ncc(F)cc43)CC2)cc1Cl
20 µM | Cc1nc(N2CCC(C(=O)N3CCC(O)(c4cccnc4)CC3)CC2)nc2ccc(C(C)C)cc12
0.63 µM | O=C(O)[C@H]1C[C@@H]1c1ccc(-c2ccc(CN(CCc3ccccn3)C(=O)C3CCC3)cc2)cc1
> 40 µM (inactive) | Cc1nccn1C1CCCN(C(=O)c2cc3c(F)cccc3s2)C1 (configuration not stated)
> 40 µM (inactive) | Cc1c([N+](=O)[O-])c(C(=O)Nc2sc3c(c2C#N)CCC(C)C3)nn1C (configuration not stated)
0.16 µM | O=C(Nc1ccc(S(=O)(=O)N2CCCC2)cc1)c1ccc([N+](=O)[O-])s1

IC50 | Compound
6.3 µM | CCOc1ccc(Nc2ccc(S(=O)(=O)N3CCN(C)CC3)cc2[N+](=O)[O-])cc1OCC
25 µM | CCNc1cc(-c2ccccn2)nc(Nc2ccccc2)n1
25 µM | Cn1cc(CN2CCN(c3ccc4c(c3)CCN(C(=O)[C@H]3C[C@@H]3c3ccccc3)CC4)CC2)cn1
25 µM | OCCCNc1nc(Nc2ccncc2)nc2ccccc12
20 µM | CCN(CC)c1nc(N(C)C)nc2c1CN(Cc1ccccc1)CC2
20 µM | COCc1cc(Nc2ccc(Cl)cc2)nc(-c2ccccn2)n1
0.079 µM | NS(=O)(=O)c1ccc(Nc2nccc(-c3cnn4ncccc34)n2)cc1
13 µM | O=C(c1cccc(Nc2ncc(-c3ccc4c(c3)OCO4)cn2)c1)N1CCSC1
32 µM | CN(Cc1cccnc1)Cc1ccc(N2CCN(C(=O)C3(c4ccc(Cl)cc4)CC3)CC2)nc1
0.25 µM | O=C(Cc1ccccc1)Nc1ccccc1C(=O)Nc1nccs1
7.9 µM | O=C(Nc1ccc(Br)c(Cl)c1)Nc1ccc2c(c1)OCO2
> 40 µM (inactive) | Cc1nc(C(=O)Nc2ccc3c(c2)OCO3)nn1-c1ccc(F)cc1
32 µM | Cc1cc(-c2cccc3ccccc23)nc2nc(N)nc(N)c12
6.3 µM | Cc1ccc2onc(Nc3ccnc(Nc4cccc(S(C)(=O)=O)c4)n3)c2c1
40 µM | COc1ccc(C(C)(C)C)cc1S(=O)(=O)n1ccnc1
0.63 µM | Cc1cc2nc(CN(C)Cc3ncccc3C)[nH]c2cc1C
0.25 µM | COc1cc(NC(=O)Nc2cccc(CNC(=O)OC3CCCCC3)c2)ccc1-c1cnco1
20 µM | Cc1c(C(C)NC(=O)Nc2cccc(Cl)c2)sc2ncnn12 (configuration not stated)
16 µM | N#Cc1nc(C=Cc2ccccc2)oc1NCc1cccnc1
4 µM | O=C(Nc1nc(-c2ccc(S(=O)(=O)N3CCOCC3)cc2)cs1)c1ccc([N+](=O)[O-])cc1
> 40 µM (inactive) | Clc1ccc(CN2CCN(C3=NCCN3)CC2)cc1Cl
0.79 µM | O=C(Nc1nc2cc(Cl)ccc2o1)c1cccc(Cl)c1
0.2 µM | CC1CCCN(S(=O)(=O)c2ccc(C(=O)Nc3nc(-c4ccccn4)cs3)cc2)C1 (configuration not stated)
0.1 µM | COc1ccc2ncc(F)c(CCN3CC[C@@H](NC(=O)c4cc5c(s4)CCC5)[C@@H](O)C3)c2n1

Compound | IC50
COc1cc(C2SCC(=O)Nc3c2c(C)nn3-c2nc3ccccc3s2)cc(OC)c1O (configuration not stated) | 6.3 µM
